Numbers after ± are expanded uncertainties.
Experiment: xn = mol fraction of the nth substance listed
Conditions: Liquid, Vibrating tube method

CN(C)C=O [dimethylformamide] + O=C=O
Conditions	mass density [kg/m3]
332.98 K, 14003 kPa, x2 = 0.4268	937.07 ± 0.41
332.98 K, 14011 kPa, x2 = 0.9311	761.83 ± 0.54
332.98 K, 15006 kPa, x2 = 0.4268	938.28 ± 0.41
332.98 K, 15009 kPa, x2 = 0.9311	776.41 ± 0.52
332.98 K, 16024 kPa, x2 = 0.4268	939.46 ± 0.41
332.98 K, 16030 kPa, x2 = 0.9311	789.22 ± 0.51
332.98 K, 17017 kPa, x2 = 0.9311	800.11 ± 0.5
332.98 K, 17036 kPa, x2 = 0.4268	940.67 ± 0.41
332.98 K, 18002 kPa, x2 = 0.9311	809.93 ± 0.49
332.98 K, 18017 kPa, x2 = 0.4268	941.85 ± 0.41
332.98 K, 19025 kPa, x2 = 0.4268	943 ± 0.41
332.98 K, 19031 kPa, x2 = 0.9311	819.29 ± 0.48
332.98 K, 20004 kPa, x2 = 0.4268	944.1 ± 0.41
332.98 K, 20025 kPa, x2 = 0.9311	827.57 ± 0.48
332.98 K, 21001 kPa, x2 = 0.4268	945.19 ± 0.41
332.98 K, 21030 kPa, x2 = 0.9311	835.37 ± 0.47
332.98 K, 21993 kPa, x2 = 0.4268	946.33 ± 0.41
332.98 K, 21994 kPa, x2 = 0.9311	842.35 ± 0.47
332.98 K, 22998 kPa, x2 = 0.9311	849.15 ± 0.47
332.98 K, 23015 kPa, x2 = 0.4268	947.45 ± 0.41
332.98 K, 24024 kPa, x2 = 0.9311	855.75 ± 0.46
332.98 K, 24114 kPa, x2 = 0.4268	948.62 ± 0.41
332.98 K, 25011 kPa, x2 = 0.9311	861.78 ± 0.46
332.98 K, 25061 kPa, x2 = 0.4268	949.68 ± 0.41
332.99 K, 6007 kPa, x2 = 0.2876	926.13 ± 0.41
332.99 K, 6998 kPa, x2 = 0.2876	927.15 ± 0.41
332.99 K, 7991 kPa, x2 = 0.2876	928.18 ± 0.41
332.99 K, 9011 kPa, x2 = 0.4461	930.78 ± 0.41
332.99 K, 9021 kPa, x2 = 0.2876	929.22 ± 0.41
332.99 K, 9993 kPa, x2 = 0.4461	931.95 ± 0.41
332.99 K, 10024 kPa, x2 = 0.2876	930.23 ± 0.41
332.99 K, 11006 kPa, x2 = 0.2876	931.19 ± 0.41
332.99 K, 11013 kPa, x2 = 0.4461	933.65 ± 0.41
332.99 K, 12003 kPa, x2 = 0.4461	934.9 ± 0.41
332.99 K, 12020 kPa, x2 = 0.2876	932.19 ± 0.41
332.99 K, 13012 kPa, x2 = 0.4461	936.18 ± 0.41
332.99 K, 13024 kPa, x2 = 0.2876	933.16 ± 0.41
332.99 K, 13991 kPa, x2 = 0.4461	937.43 ± 0.41
332.99 K, 14028 kPa, x2 = 0.2876	934.12 ± 0.41
332.99 K, 15009 kPa, x2 = 0.4461	938.71 ± 0.41
332.99 K, 15010 kPa, x2 = 0.2876	935.07 ± 0.41
332.99 K, 16010 kPa, x2 = 0.2876	936.01 ± 0.41
332.99 K, 16010 kPa, x2 = 0.4461	939.93 ± 0.41
332.99 K, 17001 kPa, x2 = 0.4461	941.16 ± 0.41
332.99 K, 17003 kPa, x2 = 0.2876	936.96 ± 0.41
332.99 K, 17994 kPa, x2 = 0.4461	942.35 ± 0.41
332.99 K, 18005 kPa, x2 = 0.2876	937.87 ± 0.41
332.99 K, 18988 kPa, x2 = 0.4461	943.52 ± 0.41
332.99 K, 19008 kPa, x2 = 0.2876	938.78 ± 0.41
332.99 K, 20001 kPa, x2 = 0.4461	944.69 ± 0.41
332.99 K, 20007 kPa, x2 = 0.2876	939.69 ± 0.41
332.99 K, 20995 kPa, x2 = 0.4461	945.88 ± 0.41
332.99 K, 21004 kPa, x2 = 0.2876	940.6 ± 0.41
332.99 K, 21990 kPa, x2 = 0.2876	941.48 ± 0.41
332.99 K, 21998 kPa, x2 = 0.4461	947.03 ± 0.41
332.99 K, 23023 kPa, x2 = 0.4461	948.19 ± 0.41
332.99 K, 23037 kPa, x2 = 0.2876	942.42 ± 0.41
332.99 K, 23982 kPa, x2 = 0.4461	949.27 ± 0.41
332.99 K, 24000 kPa, x2 = 0.2876	943.28 ± 0.41
332.99 K, 24996 kPa, x2 = 0.2876	944.13 ± 0.41
332.99 K, 25021 kPa, x2 = 0.4461	950.44 ± 0.41
333 K, 7019 kPa, x2 = 0.4502	928.11 ± 0.41
333 K, 8001 kPa, x2 = 0.4502	929.45 ± 0.41
333 K, 8029 kPa, x2 = 0.4068	930.01 ± 0.41
333 K, 9015 kPa, x2 = 0.4502	930.81 ± 0.41
333 K, 9016 kPa, x2 = 0.4068	931.23 ± 0.41
333 K, 10008 kPa, x2 = 0.4068	932.42 ± 0.41
333 K, 10013 kPa, x2 = 0.4502	932.14 ± 0.41
333 K, 11006 kPa, x2 = 0.4502	933.42 ± 0.41
333 K, 11025 kPa, x2 = 0.4068	933.65 ± 0.41
333 K, 12004 kPa, x2 = 0.4502	934.74 ± 0.41
333 K, 12006 kPa, x2 = 0.4068	934.81 ± 0.41
333 K, 13019 kPa, x2 = 0.4068	936.04 ± 0.41
333 K, 13021 kPa, x2 = 0.4502	936.04 ± 0.41
333 K, 14010 kPa, x2 = 0.4068	937.15 ± 0.41
333 K, 14019 kPa, x2 = 0.4502	937.31 ± 0.41
333 K, 15001 kPa, x2 = 0.4502	938.54 ± 0.41
333 K, 15002 kPa, x2 = 0.4068	938.28 ± 0.41
333 K, 16010 kPa, x2 = 0.4068	939.41 ± 0.41
333 K, 16014 kPa, x2 = 0.4502	939.78 ± 0.41
333 K, 16998 kPa, x2 = 0.4068	940.54 ± 0.41
333 K, 17013 kPa, x2 = 0.4502	941.01 ± 0.41
333 K, 18013 kPa, x2 = 0.4068	941.67 ± 0.41

Reference: the NIST ThermoML archive (doi:10.1021/je050050p)
